{"source": "paper PMC3973950", "about": "“Synthesis of 5-arylidine amino-1,3,4-thiadiazol-2-[(N-substituted benzyol)]sulphonamides endowed with potent antioxidants and anticancer activity induces growth inhibition in HEK293, BT474 and NCI-H226 cells” (Medicinal Chemistry Research, 2013)", "format_in_all_cases": "cell-based", "key": {"[1]": {"tested_on": "root meristem cells of Allium cepa", "assay": "In vitro antimitotic activity and cytogenetic analysis, Allium cepa meristem root model", "settings": "compounds 1 mg/mL, PC (EMS) 2 × 10^−2 M", "method": "Small bulbs (1.5–2.0 cm in diameter) of the common onion, A. cepa (2n = 16), were purchased from vendor at a local market. Prior to initiating the test, the outer scales of the bulbs and the dry bottom plate were removed without destroying the root primordia. The roots of A. cepa were grown in distilled water in Erlenmeyer flasks (200 mL capacity) under laboratory conditions (dark 24 °C). For each synthesized compound sample, after reaching a length of 3 cm (±0.5 cm), a series of six bulbs were placed in distilled water (pH 7.3) for 48 h and then onion roots were treated with the synthesized compound at 1 mg/mL concentrations of each tested compound. The test tubes were kept in an incubator at 22 ± 1 °C, and the test samples were changed daily at the same time. Several of the newly formed root tips were then cut from each bulb and examined for any visible morphological abnormalities. The bulbs with satisfactory root lengths (2–2.5 cm) were used in the study, while those with exceptionally long or short roots were discarded (on average 2–3 bulbs). Therefore, individual sets of five bulbs were used for each extract sample.\nDistilled water (pH 7.3) was used as a negative control, and EMS (2 × 10^−2 M) used as a positive control mutagen (Fiskesjo, [1993], [1997]). After 24 h of exposure, several root tips were removed from the bulbs, fixed in 3:1 (v/v) ethanol (90 %)/glacial acetic acid (45 %) and stored overnight at 4 °C. The next day, they were placed in 70 % (v/v) aqueous alcohol and refrigerated until used. Allium roots were softened by digesting with HCl and rinsed the roots in water. After removing the water from the third rinse, the roots were covered with the orcein acetate stain. The roots were incubated in the stain for 12 min. During this time, the very tip of the root begins to turn red as the DNA stains the numerous small actively dividing cells at the tip. A root was transferred to the centre of a clean microscope slide, and a drop of water was added. Using a razor blade most of the unstained part of the root was cut off and discarded. The root tip was covered with a cover slip and then carefully pushed down on the cover slide with the wooden end of a dissecting probe. […] The root tip should spread out to a diameter about 0.5–1 cm. Five slides were prepared per bulb.\nThe following parameters were used for the determination of cytotoxicity and genotoxicity: • (i) the mitotic index (MI) was calculated as the ratio between the number of mitotic cells and the total number of cells scored and expressed as percentage using following formula as per standard procedures. Mitoticindex=Numberofdividingcells/Totalnumberofcells×100 • (ii) Chromatin aberrations (stickiness, breaks and polar deviation) were used as end points for the determination of cytogenetic effects, and micronuclei (MNC) were scored in interphase cells per 1,000 cells (‰ MNC) (Freshney, [2000]). • (iii) The most frequent abnormalities are shown in microphotographs. After 72 h of exposure to the test samples, the root lengths were measured and used as an index of general toxicity. The results for mitotic index and root length are expressed as percentage of the negative and positive controls. Visible morphological modifications, such as changes in root consistency and colour as well as the presence of swelling (c-tumours), hooks or twists in the roots, were also observed."}, "[2]": {"tested_on": "NCI-H226 (lung cancer cell line)", "assay": "In vitro cytotoxicity by MTT assay, NCI-H226", "settings": "72 h", "method_in_brief": "(§1)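 RPMI-1640, 10 % newborn calf serum; ~10,000 cells/well, 24 h attachment; compound 72 h, 37 °C, 5 % CO2; MTT 4 h; propanol; A490.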"}, "[3]": {"tested_on": "BT474 (breast cancer cell line)", "assay": "In vitro cytotoxicity by MTT assay, BT474", "settings": "72 h", "method_in_brief": "as §1"}, "[4]": {"tested_on": "HEK 293 (human epidermal kidney cell line)", "assay": "In vitro cytotoxicity by MTT assay, HEK 293", "settings": "72 h", "method_in_brief": "as §1"}}}
{"substance": "N-({5-[(3-Nitrobenzylidene)amino]-1,3,4-thiadiazol-2-yl}sulfonyl)benzamide [Compound 9i]", "values": [{"measurement": "Aberrant cells (%) ± SEM", "setting": "[1]", "result": "22.41 ± 6.18", "unit": "%"}, {"measurement": "Chromosome breaks (%) ± SEM", "setting": "[1]", "result": "7.33 ± 2.06", "unit": "%"}, {"measurement": "MNC (‰) ± SEM (micronuclei per 1,000 cells)", "setting": "[1]", "result": "0.61 ± 0.15 ‰"}, {"measurement": "Polar deviations (%) ± SEM", "setting": "[1]", "result": "6.57 ± 1.33", "unit": "%"}, {"measurement": "Stickiness (%) ± SEM", "setting": "[1]", "result": "7.35 ± 2.06", "unit": "%"}, {"measurement": "MI (%) ± SEM (mitotic index)", "setting": "[1]; lower MI = higher activity, negative control 6.22", "result": "3.07 ± 0.22", "unit": "%"}, {"measurement": "% Cytotoxicity (100 − % cell survival) of NCI-H226 cell line", "setting": "[2]; 0.005 μM", "result": 33.61, "unit": "%"}, {"measurement": "% Cytotoxicity (100 − % cell survival) of NCI-H226 cell line", "setting": "[2]; 0.015 μM", "result": 33.92, "unit": "%"}, {"measurement": "% Cytotoxicity (100 − % cell survival) of NCI-H226 cell line", "setting": "[2]; 0.045 μM", "result": 33.97, "unit": "%"}, {"measurement": "% Cytotoxicity (100 − % cell survival) of NCI-H226 cell line", "setting": "[2]; 0.13 μM", "result": 34.14, "unit": "%"}, {"measurement": "% Cytotoxicity (100 − % cell survival) of NCI-H226 cell line", "setting": "[2]; 0.41 μM", "result": 34.59, "unit": "%"}, {"measurement": "% Cytotoxicity (100 − % cell survival) of NCI-H226 cell line", "setting": "[2]; 1.23 μM", "result": 34.95, "unit": "%"}, {"measurement": "% Cytotoxicity (100 − % cell survival) of NCI-H226 cell line", "setting": "[2]; 3.7 μM", "result": 35.27, "unit": "%"}, {"measurement": "% Cytotoxicity (100 − % cell survival) of NCI-H226 cell line", "setting": "[2]; 11.11 μM", "result": 36.72, "unit": "%"}, {"measurement": "% Cytotoxicity (100 − % cell survival) of NCI-H226 cell line", "setting": "[2]; 33.33 μM", "result": 38.57, "unit": "%"}, {"measurement": "% Cytotoxicity (100 − % cell survival) of NCI-H226 cell line", "setting": "[2]; 100 μM", "result": 38.66, "unit": "%"}, {"measurement": "% cytotoxicity (100 − % cell survival) of BT474 cell line", "setting": "[3]; 0.005 μM", "result": 31.52, "unit": "%"}, {"measurement": "% cytotoxicity (100 − % cell survival) of BT474 cell line", "setting": "[3]; 0.015 μM", "result": 33.31, "unit": "%"}, {"measurement": "% cytotoxicity (100 − % cell survival) of BT474 cell line", "setting": "[3]; 0.045 μM", "result": 34.59, "unit": "%"}, {"measurement": "% cytotoxicity (100 − % cell survival) of BT474 cell line", "setting": "[3]; 0.13 μM", "result": 35.42, "unit": "%"}, {"measurement": "% cytotoxicity (100 − % cell survival) of BT474 cell line", "setting": "[3]; 0.41 μM", "result": 36.12, "unit": "%"}, {"measurement": "% cytotoxicity (100 − % cell survival) of BT474 cell line", "setting": "[3]; 1.23 μM", "result": 36.73, "unit": "%"}, {"measurement": "% cytotoxicity (100 − % cell survival) of BT474 cell line", "setting": "[3]; 3.7 μM", "result": 37.56, "unit": "%"}, {"measurement": "% cytotoxicity (100 − % cell survival) of BT474 cell line", "setting": "[3]; 11.11 μM", "result": 39.19, "unit": "%"}, {"measurement": "% cytotoxicity (100 − % cell survival) of BT474 cell line", "setting": "[3]; 33.33 μM", "result": 40.50, "unit": "%"}, {"measurement": "% cytotoxicity (100 − % cell survival) of BT474 cell line", "setting": "[3]; 100 μM", "result": 41.29, "unit": "%"}, {"measurement": "% cytotoxicity (100 − % cell survival) of HEK 293 cell line", "setting": "[4]; 0.005 μM", "result": 33.04, "unit": "%"}, {"measurement": "% cytotoxicity (100 − % cell survival) of HEK 293 cell line", "setting": "[4]; 0.015 μM", "result": 34.46, "unit": "%"}, {"measurement": "% cytotoxicity (100 − % cell survival) of HEK 293 cell line", "setting": "[4]; 0.045 μM", "result": 35.12, "unit": "%"}, {"measurement": "% cytotoxicity (100 − % cell survival) of HEK 293 cell line", "setting": "[4]; 0.13 μM", "result": 36.32, "unit": "%"}, {"measurement": "% cytotoxicity (100 − % cell survival) of HEK 293 cell line", "setting": "[4]; 0.41 μM", "result": 36.69, "unit": "%"}, {"measurement": "% cytotoxicity (100 − % cell survival) of HEK 293 cell line", "setting": "[4]; 1.23 μM", "result": 37.03, "unit": "%"}, {"measurement": "% cytotoxicity (100 − % cell survival) of HEK 293 cell line", "setting": "[4]; 3.7 μM", "result": 37.19, "unit": "%"}, {"measurement": "% cytotoxicity (100 − % cell survival) of HEK 293 cell line", "setting": "[4]; 11.11 μM", "result": 38.84, "unit": "%"}, {"measurement": "% cytotoxicity (100 − % cell survival) of HEK 293 cell line", "setting": "[4]; 33.33 μM", "result": 39.51, "unit": "%"}, {"measurement": "% cytotoxicity (100 − % cell survival) of HEK 293 cell line", "setting": "[4]; 100 μM", "result": 43.48, "unit": "%"}]}
